How the values were obtained:
[1] = Pharmacokinetics: change in blood plasma concentration as time goes by; details: male, Sprague-Dawley, rat, iv, 10 mg/kg
Method: The Sprague Dawley (SD) adult male rat was slightly anesthetized with ketamine and acepromazine. Then, the femoral vein was subject to cannulation with physiological salt solution and the artery was subject to cannulation with polyethylene tubing (PE-50, intramedic, Clay-Adams) in which the physiological salt solution of 40 I.U./mL was filled, for which the heparin treatment was performed. […] At 0 (blank), 1, 5, 15, 30, 60 and 120 minutes after the administration, the blood 0.3 mL was respectively sampled, which was then centrifugally separated (13,000 rpm, 3 minutes) to separate about 0.1 mL of the blood plasma. Then, it was deproteinated and then analyzed with HPLC.
It was used the HPLC method using a reverse phase C-18 column (Shim-pack CLS-ODS, 4.6 mm I.D. 250 mm L., […] particle diameter). To the sampled blood plasma 0.1 mL were applied an internal standard material solution 50 μL ([…] daunomycin), the methanol 100 μL and the ethyl acetate 1.0 mL. The mixture solution was subject to vortexing for 3 minutes and centrifugally separated for 3 minutes (3,000 rpm) to take the organic layer only (1.0 mL), which was then dried with speed-vac. The remnants were re-composed into a moveable phase of 300 μL and 100 μL of which was then directly injected to a HPLC system. As the moveable phase of the HPLC system, a solution of the deionized water (pH=2.5 by phosphoric acid):acetonitrile=6:4 was used and a flow rate was 1 mL/min. As a HPLC detection method, a fluorescent analysis method was used at 470 nm excitation wavelength and 565 nm emission wavelength. The doxorubicin standard solution for making a calibration curve was made by dissolving it in the methanol so that it became 0.05, 0.1, 0.5, 1 and 3 μg/mL. When preparing a biological sample calibration curve, the standard solution 100 μL of doxorubicin 0.05, 0.1, 0.5, 1 and 3 μg/mL was put instead of methanol 100 μL for pre-treatment. Then, a calibration curve was made from which the doxorubicin in the blood plasma was obtained.

hepatoma = assay: Tumor growth after administration in hepatoma model rat (MRI); type: in vivo; details: hepatoma SD-rat, 2 mg/kg tail vein, three times every 5 days, one week after last injection
Method: In order to make a hepatoma model, the water in which diethyl nitrosamine was diluted in a ratio of 1:10,000 was supplied to 8 weeks old SD-rat every day for 12 weeks until the tumor was generated. […] It was checked with MRI whether the tumor was after 10 weeks breeding. […] Again, the MRI photographing was made. The phleboclysis was performed three times every 5 days. Then, at one week after the last phleboclysis, the sizes of the tumors were compared through the MRI photographing.

clearance ([1]; in vivo): 37.9 ± 15.8 mL/min/kg
half-life ([1]; in vivo): 51.6 ± 34 min
AUC [1]: 4850 ng·h/mL
Structure (SMILES): COc1cccc2c1C(=O)c1c(O)c3c(c(O)c1C2=O)C[C@@](O)(C(=O)CO)C[C@@H]3O[C@H]1C[C@H](N)[C@H](O)[C@H](C)O1 [FD, doxorubicin]
size of the tumor in MRI photograph (hepatoma): became larger
